Test results as given in ChEMBL document CHEMBL4020834, “Introduction of Intrinsic Kinetics of Protein-Ligand Interactions and Their Implications for Drug Design” (J Med Chem, 2018).

What follows are molecules tested against T1, Carbonic anhydrase 2 (Homo sapiens, UniProt P00918).

**Q.** With `NS(=O)(=O)c1c(F)c(F)c(N2CCCCC2)c(F)c1F` as the molecule, how does the Ka read?
**A.** Its Ka is 4.9 ×10⁷ /M/s.

**Q.** For `Cc1ccc(S(N)(=O)=O)cc1`, which Ka is on record?
**A.** The Ka was 1.4 ×10⁵ /M/s.

**Q.** Which Ka does the source give for `NS(=O)(=O)c1cc(C(=O)Cn2c(Cc3ccccc3)nc3ccccc32)ccc1Cl` here?
**A.** The Ka was 4.2 ×10⁷ /M/s.

These molecules were tested against T2, Carbonic anhydrase 13 (Homo sapiens, UniProt Q8N1Q1).
T2 sequence (Q8N1Q1 whole entry, looked up): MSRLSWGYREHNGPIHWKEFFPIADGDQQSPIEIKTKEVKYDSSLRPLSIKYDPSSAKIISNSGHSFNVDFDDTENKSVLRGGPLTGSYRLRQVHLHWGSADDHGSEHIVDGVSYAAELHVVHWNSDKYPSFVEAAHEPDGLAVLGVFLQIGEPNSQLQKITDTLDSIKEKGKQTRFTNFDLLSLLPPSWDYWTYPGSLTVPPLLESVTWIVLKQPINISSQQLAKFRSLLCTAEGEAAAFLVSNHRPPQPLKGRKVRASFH
Description: Binding affinity to human N-terminal full length His-tagged CA13 (1 to 262 residues) expressed in Escherichia coli BL21(DE3) assessed as association rate constant after 60 secs at pH 7 by SPR assay

**Q.** How did the Ka turn out when `NS(=O)(=O)c1c(F)c(F)c(N2CCCCC2)c(F)c1F` was run?
**A.** The Ka was 1.2 ×10⁷ /M/s.

**Q.** For `NS(=O)(=O)c1cc(C(=O)Cn2c(Cc3ccccc3)nc3ccccc32)ccc1Cl`, which Ka is on record?
**A.** The Ka was 3.4 ×10⁶ /M/s.

**Q.** Which Ka does the source give for `CC(C)(C)Nc1c(F)c(S(N)(=O)=O)c(F)c(F)c1S(=O)(=O)CCc1ccccc1` here?
**A.** The Ka was 4.6 ×10⁵ /M/s.

**Q.** For `CC(=O)Nc1nnc(S(N)(=O)=O)s1`, which Ka is on record?
**A.** Its Ka is 4.1 ×10⁵ /M/s.

Each molecule was assayed against T3, Carbonic anhydrase 7 (Homo sapiens, UniProt P43166).
T3 sequence (P43166 whole entry): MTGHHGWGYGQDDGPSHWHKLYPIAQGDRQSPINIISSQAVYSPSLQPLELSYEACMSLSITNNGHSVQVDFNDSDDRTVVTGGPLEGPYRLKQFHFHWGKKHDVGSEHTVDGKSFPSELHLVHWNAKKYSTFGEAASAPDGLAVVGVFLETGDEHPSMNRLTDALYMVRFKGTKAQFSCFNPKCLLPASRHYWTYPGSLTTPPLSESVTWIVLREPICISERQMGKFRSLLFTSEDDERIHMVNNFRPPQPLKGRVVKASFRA
Description: Binding affinity to CA7 (unknown origin) assessed as association rate constant at pH 7 by SPR assay

**Q.** For `NS(=O)(=O)c1c(F)c(F)c(N2CCCCC2)c(F)c1F`, which Ka is on record?
**A.** The Ka was 1.1 ×10⁸ /M/s.

**Q.** How did the Ka turn out when `NS(=O)(=O)c1cc(C(=O)Cn2c(Cc3ccccc3)nc3ccccc32)ccc1Cl` was run?
**A.** The Ka was 2.6 ×10⁷ /M/s.

**Q.** Which Ka does the source give for `CC(C)(C)Nc1c(F)c(S(N)(=O)=O)c(F)c(F)c1S(=O)(=O)CCc1ccccc1` here?
**A.** Its Ka is 4.5 ×10⁶ /M/s.

What follows are molecules tested against T4, Carbonic anhydrase 9 (Homo sapiens, UniProt Q16790).
Description: Binding affinity to human CA9 catalytic domain expressed in mammalian expression system assessed as association rate constant after 60 secs at pH 7 by SPR assay

**Q.** For `NS(=O)(=O)c1c(F)c(F)c(N2CCCCC2)c(F)c1F`, which Ka is on record?
**A.** Its Ka is 8.8 ×10⁸ /M/s.

**Q.** With `CC(C)(C)Nc1c(F)c(S(N)(=O)=O)c(F)c(F)c1S(=O)(=O)CCc1ccccc1` as the molecule, how does the Ka read?
**A.** Its Ka is 1.9 ×10⁷ /M/s.

What follows are molecules tested against T5, Carbonic anhydrase 12 (Homo sapiens, UniProt O43570) (assay: Binding affinity to CA12 (unknown origin) assessed as dissociation rate constant at pH 7 by SPR assay).
T5 sequence (O43570 whole entry): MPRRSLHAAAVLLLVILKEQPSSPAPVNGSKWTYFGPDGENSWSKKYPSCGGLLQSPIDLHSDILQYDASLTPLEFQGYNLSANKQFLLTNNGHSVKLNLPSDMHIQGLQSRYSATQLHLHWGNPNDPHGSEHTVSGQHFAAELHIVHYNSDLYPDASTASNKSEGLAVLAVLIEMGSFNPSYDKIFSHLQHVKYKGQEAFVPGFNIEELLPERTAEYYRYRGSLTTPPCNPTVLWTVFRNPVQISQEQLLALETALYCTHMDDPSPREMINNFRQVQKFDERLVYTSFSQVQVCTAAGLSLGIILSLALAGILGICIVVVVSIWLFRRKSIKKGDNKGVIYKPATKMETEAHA

**Q.** How did the “dissociation rate constant (koff)” value turn out when `NS(=O)(=O)c1c(F)c(F)c(N2CCCCC2)c(F)c1F` was run?
**A.** Its value is 4.1 ×10⁻² /s.

**Q.** For `CC(C)(C)Nc1c(F)c(S(N)(=O)=O)c(F)c(F)c1S(=O)(=O)CCc1ccccc1`, which “dissociation rate constant (koff)” value is on record?
**A.** The value was 1.1 ×10⁻² /s.

Biological target: T2, Carbonic anhydrase 13
Remark: another data set of the same source
Description: Binding affinity to human N-terminal full length His-tagged CA13 (1 to 262 residues) expressed in Escherichia coli BL21(DE3) assessed as intrinsic association rate constant after 60 secs at pH 7 by SPR assay

**Q.** With `CC(=O)Nc1nnc(S(N)(=O)=O)s1` as the molecule, how does the Ka read?
**A.** The Ka was 1.5 ×10⁶ /M/s.

Biological target: T4, Carbonic anhydrase 9
Remark: another data set of the same source
Description: Binding affinity to human CA9 catalytic domain expressed in mammalian expression system assessed as thermodynamic equilibrium constant at pH 7 by SPR assay

**Q.** For `CC(C)(C)c1cc(=O)[nH]c(SCC(=O)c2ccc(S(N)(=O)=O)cc2)n1`, which Kd is on record?
**A.** The Kd was 42 nM.

Biological target: T4, Carbonic anhydrase 9
Remark: another data set of the same source
Description: Binding affinity to human CA9 catalytic domain expressed in mammalian expression system assessed as intrinsic dissociation rate constant at pH 7 by SPR assay

**Q.** `CC(C)(C)c1cc(=O)[nH]c(SCC(=O)c2ccc(S(N)(=O)=O)cc2)n1` was tested. Which Kd did it give?
**A.** Its Kd is 0.074 s⁻¹.

What follows are molecules tested against T3, Carbonic anhydrase 7 (assay: Binding affinity to CA7 (unknown origin) assessed as dissociation rate constant at pH 7 by SPR assay).

**Q.** Which “dissociation rate constant (koff)” value does the source give for `NS(=O)(=O)c1c(F)c(F)c(N2CCCCC2)c(F)c1F` here?
**A.** Its value is 7.1 ×10⁻² /s.

**Q.** For `NS(=O)(=O)c1cc(C(=O)Cn2c(Cc3ccccc3)nc3ccccc32)ccc1Cl`, which “dissociation rate constant (koff)” value is on record?
**A.** The value was 6.1 ×10⁻² /s.

**Q.** With `CC(C)(C)Nc1c(F)c(S(N)(=O)=O)c(F)c(F)c1S(=O)(=O)CCc1ccccc1` as the molecule, how does the “dissociation rate constant (koff)” value read?
**A.** The value was 1.8 ×10⁻⁵ /s.

Biological target: T1, Carbonic anhydrase 2
Remark: another data set of the same source

**Q.** How did the Ka turn out when `Cc1ccc(S(N)(=O)=O)cc1` was run?
**A.** Its Ka is 4.5 ×10⁸ /M/s.

Biological target: T4, Carbonic anhydrase 9
Remark: another data set of the same source
Description: Binding affinity to human CA9 catalytic domain expressed in mammalian expression system assessed as dissociation rate constant at pH 7 by SPR assay

**Q.** Which Kd does the source give for `NS(=O)(=O)c1cc(C(=O)CSc2ncccn2)ccc1Cl` here?
**A.** Its Kd is 4 ×10⁻¹ /s.

**Q.** With `NS(=O)(=O)c1c(F)c(F)c(N2CCCCC2)c(F)c1F` as the molecule, how does the Kd read?
**A.** Its Kd is 1.5 ×10⁻¹ /s.

**Q.** With `CC(C)(C)Nc1c(F)c(S(N)(=O)=O)c(F)c(F)c1S(=O)(=O)CCc1ccccc1` as the molecule, how does the Kd read?
**A.** The Kd was 6.4 ×10⁻³ /s.

**Q.** For `NS(=O)(=O)c1ccc(C(=O)CSc2ncccn2)cc1`, which Kd is on record?
**A.** Its Kd is 2.1 ×10⁻¹ /s.

**Q.** How did the Kd turn out when `CC(C)(C)c1cc(=O)[nH]c(SCC(=O)c2ccc(S(N)(=O)=O)cc2)n1` was run?
**A.** The Kd was 0.074 to 0.1 s⁻¹.

Each molecule was assayed against T1, Carbonic anhydrase 2 (assay: Binding affinity to human full length His-tagged CA2 (1 to 260 residues) expressed in Escherichia coli BL21(DE3) assessed as dissociation rate constant at pH 7 by SPR assay).

**Q.** How did the “dissociation rate constant (koff)” value turn out when `NS(=O)(=O)c1c(F)c(F)c(N2CCCCC2)c(F)c1F` was run?
**A.** Its value is 9.3 ×10⁻³ /s.

**Q.** Which “dissociation rate constant (koff)” value does the source give for `NS(=O)(=O)c1cc(C(=O)Cn2c(Cc3ccccc3)nc3ccccc32)ccc1Cl` here?
**A.** Its value is 1.3 ×10⁻¹ /s.

The molecules below were run against T5, Carbonic anhydrase 12.
Description: Binding affinity to CA12 (unknown origin) assessed as association rate constant at pH 7 by SPR assay

**Q.** Which Ka does the source give for `NS(=O)(=O)c1c(F)c(F)c(N2CCCCC2)c(F)c1F` here?
**A.** Its Ka is 3.6 ×10⁷ /M/s.

**Q.** For `NS(=O)(=O)c1cc(C(=O)Cn2c(Cc3ccccc3)nc3ccccc32)ccc1Cl`, which Ka is on record?
**A.** Its Ka is 1.3 ×10⁷ /M/s.

**Q.** `CC(C)(C)Nc1c(F)c(S(N)(=O)=O)c(F)c(F)c1S(=O)(=O)CCc1ccccc1` was tested. Which Ka did it give?
**A.** Its Ka is 3.4 ×10⁶ /M/s.
